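96-well plates; 48 h exposure; 5 concentrations. Endpoints by linear interpolation between flanking doses. Not reached: highest tested concentration assigned. TGI: concentration producing complete growth inhibition.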 Bounds are passed on as bounds.

Results on nine compounds are retold here after PubChem BioAssay (NCI).

Test systems include CCRF-CEM leukemia; DU-145 prostate; EKVX NSCLC; HL-60(TB) leukemia; HS 578T breast; IGROV1 ovarian; M14 melanoma; MCF7 breast; MDA-MB-231 breast; MDA-MB-435; PC-3 prostate; RXF 393 renal; SK-MEL-5 melanoma; SR leukemia; T-47D breast; TK-10 renal; 786-0 renal; BT-549 breast; HCC-2998 colon.
What all share (assay): NCI anticancer screen, dose series, 48 h

In the case of `CS(C)(=O)=Nn1c(=O)n2n(c1=O)[C@H]1CC[C@@H]2C1`, the TGI in the experiment with CCRF-CEM leukemia, with DU-145 prostate, in the experiment on EKVX NSCLC, in the experiment with HL-60(TB) leukemia, in the experiment on HS 578T breast and with IGROV1 ovarian was over 100 µM each time. Moreover, the TGI with M14 melanoma, in the experiment on MCF7 breast, with MDA-MB-231 breast, in the experiment with MDA-MB-435, in the experiment with PC-3 prostate and in the experiment on RXF 393 renal was over 100 µM throughout. Besides, the TGI with SK-MEL-5 melanoma, in the experiment with SR leukemia, in the experiment on T-47D breast and in the experiment with TK-10 renal was over 100 µM each time.
With `COc1cccc(/C=N/[N+](C)(C)C)c1O`, the TGI in the experiment on 786-0 renal, with BT-549 breast, in the experiment on CCRF-CEM leukemia, in the experiment with DU-145 prostate, in the experiment with EKVX NSCLC and in the experiment on HCC-2998 colon was over 10 µM throughout. Besides, the TGI with HL-60(TB) leukemia, with HS 578T breast, in the experiment on IGROV1 ovarian, in the experiment on M14 melanoma, in the experiment with MCF7 breast and with MDA-MB-231 breast was over 10 µM in each case. For the same compound, the TGI with MDA-MB-435, in the experiment with PC-3 prostate, with RXF 393 renal, in the experiment on SK-MEL-5 melanoma, in the experiment with T-47D breast and with TK-10 renal was over 10 µM throughout.
On to `O=C1C=CC2(C=C1)O[C@H](CCc1ccccc1)[C@@H](CCc1ccccc1)O2`, for which the TGI was over 100 µM with 786-0 renal; over 100 µM in the experiment with BT-549 breast; over 100 µM with CCRF-CEM leukemia; over 100 µM with DU-145 prostate; 83.3 µM in the experiment with EKVX NSCLC; over 100 µM in the experiment on HL-60(TB) leukemia. In addition, the TGI with HS 578T breast was over 100 µM; with IGROV1 ovarian, over 100 µM; in the experiment with M14 melanoma it was over 100 µM; with MCF7 breast, over 100 µM; in the experiment on MDA-MB-231 breast it was over 100 µM; with MDA-MB-435, 76.1 µM. Further, the TGI with PC-3 prostate, in the experiment with RXF 393 renal, with SK-MEL-5 melanoma, in the experiment with SR leukemia, with T-47D breast and in the experiment with TK-10 renal was over 100 µM in each case.
On to `CC1=CC2=C(C=O)C(=O)[C@](C)(O)[C@@H](O)C2=CO1`, for which the TGI with CCRF-CEM leukemia was 59.3 µM; with EKVX NSCLC it was over 100 µM; in the experiment on HCC-2998 colon it was over 61.5 µM; in the experiment with IGROV1 ovarian, over 100 µM; in the experiment with MCF7 breast, over 100 µM; with RXF 393 renal, 52.3 µM. The same compound gave a TGI with SK-MEL-5 melanoma of 68.1 µM.
As to `COc1cc2c(cc1OCCCN1CCOCC1)N=C[C@@H]1CCCN1C2=O`, the TGI was over 100 µM in the experiment on 786-0 renal; over 100 µM with BT-549 breast; 25.3 µM with CCRF-CEM leukemia; 76.9 µM with DU-145 prostate; 47.1 µM in the experiment on EKVX NSCLC; 29.6 µM in the experiment with HL-60(TB) leukemia. For the same compound, the TGI was over 100 µM in the experiment with HS 578T breast; 29.1 µM in the experiment with M14 melanoma; over 100 µM in the experiment with MCF7 breast; over 100 µM with MDA-MB-231 breast; 31 µM in the experiment on MDA-MB-435; 72.4 µM in the experiment on PC-3 prostate. Besides, the TGI is 8.13 µM in the experiment with RXF 393 renal, 27.4 µM with SK-MEL-5 melanoma, 39.8 µM in the experiment on SR leukemia and over 100 µM with TK-10 renal.
Regarding `O=c1c2cc([N+](=O)[O-])ccc2[nH]n1Cc1ccccc1Cl`, the TGI in the experiment with 786-0 renal, in the experiment with CCRF-CEM leukemia, in the experiment with DU-145 prostate, in the experiment with EKVX NSCLC, in the experiment on HCC-2998 colon and in the experiment on HL-60(TB) leukemia was over 100 µM in each case. The TGI with HS 578T breast, in the experiment with IGROV1 ovarian, with M14 melanoma, in the experiment with MDA-MB-231 breast, in the experiment with MDA-MB-435 and in the experiment on PC-3 prostate was over 100 µM throughout. In addition, the TGI was over 100 µM in the experiment with RXF 393 renal, over 100 µM in the experiment with SK-MEL-5 melanoma, over 100 µM with SR leukemia and 99.9 µM in the experiment with TK-10 renal.
Consider `Cc1ccc(C(=O)c2[nH]c(NCc3ccccc3)c(C(=S)Nc3ccccc3)c2N)cc1`, for which the TGI with 786-0 renal was found to be 18.7 µM; with BT-549 breast it was 20.3 µM; in the experiment on CCRF-CEM leukemia, 28.9 µM; in the experiment on DU-145 prostate, 27 µM; in the experiment with EKVX NSCLC, 26.5 µM; in the experiment on HCC-2998 colon, 2.65 µM. The TGI in the experiment with HL-60(TB) leukemia was determined as 33.5 µM; in the experiment on IGROV1 ovarian, 19.9 µM; in the experiment on M14 melanoma, 3.97 µM; with MCF7 breast, 13.2 µM; with MDA-MB-231 breast it was 19.6 µM; in the experiment with MDA-MB-435 it was 10.2 µM. Moreover, the TGI with PC-3 prostate worked out at 26.1 µM; in the experiment on RXF 393 renal, 20.7 µM; in the experiment with T-47D breast, 33.5 µM; with TK-10 renal, 23.3 µM.
With `C=C1C(=O)OC2/C=C(\CO)C3OC3C3OC3(C)CC(OC(=O)/C(=C/C)COC(C)=O)C12` (configuration not stated), the TGI in the experiment with 786-0 renal was determined as 5.36 µM; in the experiment with BT-549 breast, 3.48 µM; with DU-145 prostate, 32.3 µM; in the experiment with EKVX NSCLC, 9.58 µM; in the experiment on HCC-2998 colon it was 37.1 µM; in the experiment on HS 578T breast it was 20.4 µM. In addition, the TGI in the experiment with IGROV1 ovarian came to 29.5 µM; in the experiment on M14 melanoma, 6.64 µM; with MCF7 breast, 20.1 µM; in the experiment on MDA-MB-231 breast, 19.5 µM; in the experiment with MDA-MB-435, 7.88 µM; in the experiment with PC-3 prostate it was 27 µM. The TGI was 3.96 µM in the experiment with RXF 393 renal, 20.1 µM in the experiment with SK-MEL-5 melanoma, 9.7 µM with T-47D breast and 11.1 µM in the experiment on TK-10 renal.
For the compound `COc1ccc2[nH]c(=O)cc(C)c2c1[N+](=O)[O-]`, the TGI in the experiment with 786-0 renal, with CCRF-CEM leukemia, with EKVX NSCLC, with HCC-2998 colon, in the experiment with HL-60(TB) leukemia and with IGROV1 ovarian was over 100 µM in each case. Further, the TGI with M14 melanoma, in the experiment on SK-MEL-5 melanoma and with TK-10 renal was over 100 µM each time.
